What was measured:
[1] = species: Rattus norvegicus; assay: Compound was evaluated for agonist activity at 10 uM exhibiting moderate antagonism of [3H]MK-801 binding relative to 100% control; type: functional; parameters: unit: % of control
[2] = species: Rattus norvegicus; assay: Compound was evaluated for agonist activity at 1 uM exhibiting moderate antagonism of [3H]MK-801 binding relative to 100% control; type: functional; parameters: unit: % of control

Compound: CC(C)(C)NCCCCNCCCCNCCCCNC(C)(C)C
- Activity [1]: 33
- Activity [2]: 106.5

Compound: CCNCCCCNCCCCNCCCCNCC [DIETHYLHOMOSPERMINE]
- Activity [1]: 53.9
- Activity [2]: 114.3

Compound: CCNCCCNCCCCNCCCNCC [BIS(ETHYL)SPERMINE]
- Activity [1]: 63.7
- Activity [2]: 113.7

Compound: CNCCCCNCCCCNCCCCNC
- Activity [1]: 76.3
- Activity [2]: 117.8

Compound: CNCCCNCCCNCCCNC
- Activity [1]: 87.9
- Activity [2]: 120.6

Compound: NCCCNCCCCNCCCN [SPERMINE]
- Activity [2]: 123.2

Compound: C(CCNCCCCN[C@]12C[C@H]3C[C@H](C[C@H](C3)C1)C2)CNCCCCNC12C[C@H]3C[C@@H](C1)C[C@@H](C2)C3.Cl
- Activity [1]: 15
- Activity [2]: 101.9

From ChEMBL document CHEMBL1128643, “Impact of polyamine analogues on the NMDA receptor” (1995)
